The star is where a group is joined. Biotin = O=C1N[C@H]2[C@H](CS[C@H]2CCCCC(=O)*)N1

This experiment deals with endogenous antibodies to cardiac troponin-I (binding to recombinant human cardiac troponin-I). Put plainly: Inhibition of anti-cTnI autoantibody binding to cardiac troponin-I (microplate chemiluminescent immunoassay). How it is done:
Inhibitor working solutions: The peptides listed in Table 12 (obtained from Sigma-Genosys, PEPscreen custom library) were diluted in AxSYM® Troponin-I ADV Preincubation Diluent to give solutions ranging from 240 nmol/mL to 0 nmol/mL. An equimolar mixture of the peptides listed in Table 12 was prepared and diluted to give solutions ranging from 240 nmol/mL to 0 nmol/mL/.
Microplate preparation: Recombinant human cardiac troponin-I (cTnI, BiosPacific, Emeryville, Calif.) was coated on white high-binding flat-bottom 96-well polystyrene microplates (Costar) in phosphate buffer (100 μL, 0.2 M, pH 8, 4 μg/mL) at 38° C., for 1 h, then overcoated sequentially with bovine serum albumin and 2% wt/v sucrose in PBS.
Chemiluminescent detection conjugate: A murine anti-human IgG (subtype IgG2b, kappa;) was labeled with a chemiluminescent acridinium-9-carboxamide. This antibody recognized all human IgG subtypes while having no significant reactivity toward human IgM or IgA, or rabbit, sheep or goat IgG. […]
Chemiluminescent detection: The microplate was loaded into a Mithras microplate reader (Berthold Technologies Inc, Oak Ridge, Tenn.) equilibrated at 28° C. The chemiluminescence signal from each well was recorded for 2 s after the sequential addition of ARCHITECT® Pre-Trigger solution (100 μL) and ARCHITECT® Trigger solution (100 μL).

On to “#5 (Biotin-ALSGMEGRKKKFES-NH2; SMILES CSCC[C@H](NC(=O)CNC(=O)[C@H](CO)NC(=O)[C@H](CC(C)C)NC(=O)[C@H](C)NC(=O)CCCC[C@@H]1SC[C@@H]2NC(=O)N[C@@H]21)C(=O)N[C@@H](CCC(=O)O)C(=O)NCC(=O)N[C@@H](CCCNC(=N)N)C(=O)N[C@@H](CCCCN)C(=O)N[C@@H](CCCCN)C(=O)N[C@@H](CCCCN)C(=O)N[C@@H](Cc1ccccc1)C(=O)N[C@@H](CCC(=O)O)C(=O)N[C@@H](CO)C(N)=O)”, for which the “ratio of signal to the low control (S/LC): inhibition of the binding of endogenous antibodies to the cTnI antigen on the microplate” value (Example 1, FIG. 11, peptides of Table 12 ([Btn] amino-terminus), 240 to 0 nmol/mL, human serum sample mixed 1:1, overnight) is reported as “greatest inhibition” and the “ratio of signal to the low control (S/LC): inhibition of the binding of endogenous antibodies to the cTnI antigen on the microplate” value (Example 2, FIG. 12, peptides of Table 13 ([Ac] amino-terminus), procedure of Example 1) is “greatest inhibition”.

The record behind these values is patent US20110136141A1, “PEPTIDE REAGENTS AND METHOD FOR INHIBITING AUTOANTIBODY ANTIGEN BINDING” (Abbott Laboratories, priority 2009, published 2011).
